Source: patent publication US20060069132A1, “Azolecarboxamide herbicides” (priority 2004, published 2006)

Legend:
lambsquarters = test: Test C pre-/postemergence herbicide test; type: in vivo, Chenopodium album; details: for Lambsquarters plant response rating: 500 g ai/ha
Method in brief: (§1)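 Visual ratings on a 0–100 scale (100 = complete control) made versus untreated controls after 12 to 14 greenhouse days. Test chemicals, formulated in surfactant-containing non-phytotoxic solvent, applied preemergence to planted seeds or postemergence to 1- to 4-leaf plants (2 to 18 cm).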

redroot pigweed = test: Test A pre-/postemergence herbicide test; type: in vivo, Amaranthus retroflexus
Method in brief: (§2)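 Visual injury scores on a 0–100 scale (100 = complete control) taken about ten days post-treatment in greenhouse against untreated controls; dash means no result. Treatments: preemergence soil spray and postemergence spray to runoff on one- to two-leaf plants 2 to 10 cm tall, surfactant-containing formulation.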

large crabgrass = test: Test A pre-/postemergence herbicide test; type: in vivo, Digitaria sanguinalis
Method in brief: as §2

giant foxtail = test: Test C pre-/postemergence herbicide test; type: in vivo, Setaria faberi; details: for Foxtail, Giant plant response rating: 500 g ai/ha
Method in brief: as §1

barnyardgrass = test: Test A pre-/postemergence herbicide test; type: in vivo, Echinochloa crus-galli
Method in brief: as §2

common ragweed = test: Test C pre-/postemergence herbicide test; type: in vivo, Ambrosia elatior; design: key to Plant response rating, Ragweed: 0 = no effect, 100 = complete control; details: for Ragweed plant response rating: 500 g ai/ha
Method in brief: as §1

[1] = system: common (oilseed) sunflower; test: Test C pre-/postemergence herbicide test; type: in vivo, Helianthus annuus; details: for Sunflower plant response rating: Preemergence, 500 g ai/ha, scale 0 to 100, 0 no effect, 100 complete control
Method in brief: as §1

velvetleaf = test: Test C pre-/postemergence herbicide test; type: in vivo, Abutilon theophrasti; details: for Velvetleaf plant response rating: 500 g ai/ha
Method in brief: as §1

corn = test: Test C pre-/postemergence herbicide test; type: in vivo, Zea mays; details: for Corn plant response rating: 500 g ai/ha
Method in brief: as §1

kochia = test: Test C pre-/postemergence herbicide test; type: in vivo, Kochia scoparia; details: for Kochia plant response rating: 500 g ai/ha
Method in brief: as §1

[2] = 125 g ai/ha, scale 0 (no effect) to 100 (complete control), visual, 12 to 14 days, preemergence
[3] = Postemergence, 250 g ai/ha, scale 0 to 100, 0 no effect, 100 complete control
[4] = Preemergence, scale 0 to 100, 0 no effect, 100 complete control
[5] = postemergence, 125 g ai/ha, scale 0 to 100
[6] = postemergence, 62 g ai/ha, scale 0 to 100
[7] = Postemergence, 500 g ai/ha, 0 to 100 scale, 0 no effect, 100 complete control
[8] = Postemergence, 2000 g ai/ha, 0 to 100 scale, 0 no effect, 100 complete control
[9] = Preemergence, 2000 g ai/ha, visual rating, 0 to 100 scale (0 no effect, 100 complete control)
[10] = preemergence, 500 g ai/ha, visual injury, 0 to 100 scale (0 no effect, 100 complete control)
[11] = Preemergence, 500 g ai/ha, visual rating, 0 to 100 scale (0 no effect, 100 complete control)
[12] = 250 g ai/ha, scale 0 to 100 (0 no effect, 100 complete control), visual, 12 to 14 days, preemergence
[13] = 62 g ai/ha, preemergence, scale 0 to 100

C#CCNC(=O)c1cccc(NC(=O)c2cc(C(C)(C)C)nn2CC)n1 [Compound 147]
Plant response rating (0 = no effect, 100 = complete control), Lambsquarters (lambsquarters; 62 g ai/ha, preemergence): 70
Plant response rating, Lambsquarters (lambsquarters; [2]): 90
Lambsquarters plant response rating (lambsquarters; Postemergence, scale 0 to 100): 100
Plant response rating, Lambsquarters (lambsquarters; [3]): 100
Lambsquarters plant response rating (lambsquarters; [4]): 100
Plant response rating, Lambsquarters (lambsquarters; [5]): 100
Plant response rating, Lambsquarters (lambsquarters; [6]): 90
Pigweed plant response rating (redroot pigweed; [7]): 90
Plant response rating, Pigweed (redroot pigweed; [8]): 100
Pigweed plant response rating (redroot pigweed; [9]): 100
Pigweed plant response rating (redroot pigweed; [10]): 85
Crabgrass, Large plant response rating (large crabgrass; [7]): 40
Plant response rating, Crabgrass, Large (large crabgrass; [8]): 90
Crabgrass, Large plant response rating (large crabgrass; [11]): 85
Crabgrass, Large plant response rating (large crabgrass; [9]): 90
Plant response rating (0 = no effect, 100 = complete control), Foxtail, Giant (giant foxtail; 62 g ai/ha, preemergence): 0
Plant response rating, Foxtail, Giant (giant foxtail; [2]): 0
Plant response rating, Foxtail, Giant (giant foxtail; [12]): 30
Foxtail, Giant plant response rating (giant foxtail; Postemergence, scale 0 to 100): 45
Plant response rating, Foxtail, Giant (giant foxtail; [3]): 0
Foxtail, Giant plant response rating (giant foxtail; [4]): 100
Plant response rating, Foxtail, Giant (giant foxtail; [5]): 0
Plant response rating, Foxtail, Giant (giant foxtail; [6]): 0
Barnyardgrass plant response rating (barnyardgrass; [7]): 55
Plant response rating, Barnyardgrass (barnyardgrass; [8]): 95
Barnyardgrass plant response rating (barnyardgrass; [11]): 40
Barnyardgrass plant response rating (barnyardgrass; [9]): 95
Plant response rating (0 = no effect, 100 = complete control), Ragweed (common ragweed; 62 g ai/ha, preemergence): 0
Plant response rating, Ragweed (common ragweed; [2]): 0
Ragweed plant response rating (common ragweed; Postemergence, scale 0 to 100): 10
Plant response rating, Ragweed (common ragweed; [3]): 10
Ragweed plant response rating (common ragweed; [4]): 70
Plant response rating, Ragweed (common ragweed; [5]): 0
Plant response rating, Ragweed (common ragweed; [6]): 0
Plant response rating (0 = no effect, 100 = complete control), Sunflower ([1]; 62 g ai/ha, preemergence): 0
Plant response rating, Sunflower [1, 2]: 0
Sunflower plant response rating [1]: 0
Plant response rating, Velvetleaf (velvetleaf; [2]): 20
Velvetleaf plant response rating (velvetleaf; Postemergence, scale 0 to 100): 40
Velvetleaf plant response rating (velvetleaf; [4]): 90
Plant response rating, Velvetleaf (velvetleaf; [5]): 30
Plant response rating, Velvetleaf (velvetleaf; [6]): 0
Plant response rating (0 = no effect, 100 = complete control), Corn (corn; 62 g ai/ha, preemergence): 0
Plant response rating, Corn (corn; [2]): 0
Plant response rating, Corn (corn; [12]): 0
Corn plant response rating (corn; Postemergence, scale 0 to 100): 15
Plant response rating, Corn (corn; [3]): 10
Corn plant response rating (corn; [4]): 60
Plant response rating, Corn (corn; [5]): 5
Plant response rating, Corn (corn; [6]): 0
Plant response rating, Kochia (kochia; [2]): 40
Kochia plant response rating (kochia; Postemergence, scale 0 to 100): 80
Plant response rating, Kochia (kochia; [3]): 50
Kochia plant response rating (kochia; [4]): 100
Plant response rating, Kochia (kochia; [5]): 10
Plant response rating, Kochia (kochia; [6]): 5

CCN(CC)C(=O)c1ccnc(NC(=O)c2cc(C(C)(C)C)nn2CC)c1 [Compound 153]
Plant response rating, Lambsquarters (lambsquarters; [13]): 95
Plant response rating, Lambsquarters (lambsquarters; [2]): 100
Lambsquarters plant response rating (lambsquarters; [4]): 100
Pigweed plant response rating (redroot pigweed; [7]): 95
Plant response rating, Pigweed (redroot pigweed; [8]): 100
Pigweed plant response rating (redroot pigweed; [9]): 100
Pigweed plant response rating (redroot pigweed; [10]): 100
Crabgrass, Large plant response rating (large crabgrass; [7]): 10
Plant response rating, Crabgrass, Large (large crabgrass; [8]): 20
Crabgrass, Large plant response rating (large crabgrass; [11]): 25
Crabgrass, Large plant response rating (large crabgrass; [9]): 25
Plant response rating, Foxtail, Giant (giant foxtail; [13]): 0
Plant response rating, Foxtail, Giant (giant foxtail; [2]): 0
Plant response rating, Foxtail, Giant (giant foxtail; [12]): 0
Foxtail, Giant plant response rating (giant foxtail; [4]): 0
Barnyardgrass plant response rating (barnyardgrass; [7]): 75
Plant response rating, Barnyardgrass (barnyardgrass; [8]): 100
Barnyardgrass plant response rating (barnyardgrass; [11]): 80
Barnyardgrass plant response rating (barnyardgrass; [9]): 90
Plant response rating, Ragweed (common ragweed; [13]): 0
Plant response rating, Ragweed (common ragweed; [2]): 0
Ragweed plant response rating (common ragweed; [4]): 100
Plant response rating, Sunflower [1, 13]: 0
Plant response rating, Sunflower [1, 2]: 0
Sunflower plant response rating [1]: 0
Plant response rating, Velvetleaf (velvetleaf; [13]): 0
Plant response rating, Velvetleaf (velvetleaf; [2]): 20
Velvetleaf plant response rating (velvetleaf; [4]): 100
Plant response rating, Corn (corn; [13]): 0
Plant response rating, Corn (corn; [2]): 0
Plant response rating, Corn (corn; [12]): 0
Corn plant response rating (corn; [4]): 0
Plant response rating, Kochia (kochia; [13]): 65
Plant response rating, Kochia (kochia; [2]): 95
Kochia plant response rating (kochia; [4]): 100
